# Assay results taken from US7160684B2, “Methods of selecting compounds for modulation of bladder function” (Wyeth, priority 2000, dated 2007).
# Columns and labels:
# [1] = test system: isolated rat bladder smooth muscle cell; assay: Current clamp recording of resting membrane potential, rat cells; assay type: cell-based; conditions: 10 μM retigabine
# Description: Rat detrusor cells are isolated in a manner previously described for guinea-pig detrusor (Sheldon J H, Norton N W and Argentieri T M (1997) Inhibition of guinea pig detrusor contraction by NS-1619 is associated with activation of BKCa and inhibition of calcium currents. J Pharmacol Exp Thera 283(3): 1193–1200). Male Sprague-Dawley rats (Charles River, Wilmington, Mass.; 200–400 grams) are euthanized by CO2 inhalation and exsanguination. Their urinary bladders are rapidly removed and placed in 37° C. physiological solution with the following composition (mM): Na glutamate (80.0), NaCl (54.7), KCl (5.0), NaHCO3 (25.0), MgCl2.2H2O (2.5), D-glucose (11.8) and CaCl2 (0.2) gassed with O2—CO2, 95%/5% for a final pH of 7.4. The dome of the bladder is isolated from the trigone region and the mucosa is removed. This tissue is then cut into 2–3 mm wide strips and placed into fresh buffer for 1 hour. Tissues are then transferred into 10 ml of an isolation buffer containing the above composition plus collagenase type VIII (1.0 mg/ml) and pronase (0.25 mg/ml). After 10 minutes the isolation buffer is replaced with fresh isolation buffer for an additional 10 min. The tissue is then washed 3 times in fresh collagenase and pronase free solution and stored at room temperature until studied. Cells for study are prepared by triturating 1–2 pieces of detrusor tissue in 2 ml of fresh isolation buffer for 5 minutes with a polished Pasteur pipette, (tip diameter ˜1.5 mm) attached to a modified Harvard Respirator pump (Harvard Apparatus, Southnatic, Mass.) at a rate of 20×/min. with an approximate volume of 5 ml. Cells are then placed on a microscope stage in a temperature regulated tissue bath at 32.5° C. and continually superfused with PSS.
# (§1) Single cell recordings are performed with a List-Medical EPC-7 patch clamp amplifier (Adams & List Assoc., Westbury, N.Y.). Pipette electrodes had tip resistances of 2–4 MΩ and are filled with the following composition (mM): KCl (126.0), MgCl2.6H2O (4.5), ATP Mg salt (4.0), GTP tris salt (0.3), creatine PO4 (14.0), D-glucose (9.0), EGTA (9.0), HEPES (9.0). The pH is adjusted to 7.4 with KOH. Signals are acquired (3 kHz high frequency cut-off, 12 bit resolution) using a 586-based personal computer.
# Cell resting membrane potential (RMP) is measured in current clamp using the above mentioned instrumentation and pipette solutions. For these experiments nystatin is also added to the pipette solution (100 μg/ml) to allow recording through utilization of the perforated patch technique (Korn, et al, 1991). […] After this time, various antagonists (linopirdine, XE-991) are added to the perfusate and RMP is recorded for an additional 5 minutes. […]
# [2] = test system: cultured human bladder smooth muscle cells; assay: Current clamp recording of resting membrane potential, human cells; assay type: cell-based; conditions: resting membrane potential −8.0±2.8 mV before retigabine; n=3
# Protocol: as §1
# Cell resting membrane potential (RMP) is measured in current clamp using the above mentioned instrumentation and pipette solutions. For these experiments nystatin is also added to the pipette solution (100 μg/ml) to allow recording through utilization of the perforated patch technique (Korn, et al, 1991). After stable access is achieved, RMP is recorded for a 5 minute control period followed by 5 minute of drug application (0.3 and 1.0 μM). After this time, various antagonists (linopirdine, XE-991) are added to the perfusate and RMP is recorded for an additional 5 minutes. […]
# Rat bladder strips were isolated and prepared as previously described (Wojdan, A., Freeden, C., Woods, M., Oshiro, G., Spinelli, W. et al., J Pharmacol ExpTherap 289:1410–1418 (1999)). […] Message for KCNQ subunits was probed using quantitative rtPCR on an ABI PRISM 7700 Sequence Detection System (TAQMAN). […]
structure (smiles),measurement,setting,value
"CCOC(=O)Nc1ccc(NCc2ccc(F)cc2)cc1N [retigabine, N-[2-amino-4-(4-fluorobenzylamino)-phenyl]carbamic acid ethyl ester]",hyperpolarization of the cell,"[1]; RMP −40 mV before exposure, single tracing FIG. 3a",approximately 10 mV
same,resting membrane potential (RMP) after exposure,"[1]; control RMP −29.0±4.5 mV, n=3",−43.0±3.5 mV
same,hyperpolarization of cells,[2],11±1.1 mV
